The text below walks through data of article PMC7758399, “Phosphoglucoisomerase Is an Important Regulatory Enzyme in Partitioning Carbon out of the Calvin-Benson Cycle” (Frontiers in Plant Science, 2020).

Common to all, as to format: biochemical
The target in test [1] is T1, plastidic AtPGI (PGI1) (Arabidopsis thaliana, UniProt Q8H103).
T1 construct: N-terminal His-tag, plastid targeting peptide removed, pET11a, E. coli BL21, Ni-NTA purified
T1 sequence (Q8H103 49-613): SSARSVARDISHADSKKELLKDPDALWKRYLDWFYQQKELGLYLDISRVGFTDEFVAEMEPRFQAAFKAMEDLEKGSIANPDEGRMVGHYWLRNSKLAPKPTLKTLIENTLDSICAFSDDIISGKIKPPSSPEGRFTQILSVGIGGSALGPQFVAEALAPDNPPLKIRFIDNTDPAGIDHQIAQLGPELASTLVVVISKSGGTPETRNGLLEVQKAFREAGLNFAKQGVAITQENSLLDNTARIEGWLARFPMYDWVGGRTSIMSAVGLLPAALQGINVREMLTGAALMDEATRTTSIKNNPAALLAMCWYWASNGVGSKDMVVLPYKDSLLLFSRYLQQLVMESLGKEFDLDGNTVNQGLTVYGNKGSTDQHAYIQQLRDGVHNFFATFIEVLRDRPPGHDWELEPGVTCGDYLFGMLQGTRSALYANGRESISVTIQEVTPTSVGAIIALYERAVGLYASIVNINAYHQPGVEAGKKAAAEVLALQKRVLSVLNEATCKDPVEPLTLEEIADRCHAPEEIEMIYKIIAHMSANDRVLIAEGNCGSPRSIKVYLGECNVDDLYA
The test is described as follows: G6PDH-coupled spectrophotometric assay, non-linear least squares fit. Particulars: F6P to G6P direction, F6P 0-0.98 mM, 50 mM bicine pH 7.8, 4.8 mM DTT, 0.6 mM NADP+, read-out: F6P G6P / Plastidic PGI. The source says:
G6PDH-coupled spectrophotometric assay, non-linear least squares fit on plastidic AtPGI (PGI1)

Test [2] concerns the target T2, cytosolic AtPGI (PGI2) (Arabidopsis thaliana, UniProt P34795).
T2 construct: gene PGIC; N-terminal His-tag, pET11a, E. coli BL21, Ni-NTA purified
T2 sequence (P34795 1-560): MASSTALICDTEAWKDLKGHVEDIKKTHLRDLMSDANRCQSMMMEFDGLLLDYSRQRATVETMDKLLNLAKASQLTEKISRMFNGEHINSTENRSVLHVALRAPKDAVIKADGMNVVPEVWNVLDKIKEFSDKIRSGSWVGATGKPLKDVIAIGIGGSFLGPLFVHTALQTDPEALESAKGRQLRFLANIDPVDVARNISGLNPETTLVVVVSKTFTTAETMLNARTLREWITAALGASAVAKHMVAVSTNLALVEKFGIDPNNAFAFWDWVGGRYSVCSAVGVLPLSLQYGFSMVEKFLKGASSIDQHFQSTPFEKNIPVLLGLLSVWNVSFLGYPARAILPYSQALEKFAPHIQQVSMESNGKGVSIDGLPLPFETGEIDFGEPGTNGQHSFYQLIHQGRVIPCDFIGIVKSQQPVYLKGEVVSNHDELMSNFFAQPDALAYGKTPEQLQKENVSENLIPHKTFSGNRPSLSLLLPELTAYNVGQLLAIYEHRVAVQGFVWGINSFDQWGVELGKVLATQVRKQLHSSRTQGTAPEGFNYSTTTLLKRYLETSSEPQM
Described as above. Particulars: F6P to G6P direction, F6P 0-0.98 mM, 50 mM bicine pH 7.8, 4.8 mM DTT, 0.6 mM NADP+, read-out: F6P G6P / Cytosolic PGI. The source says:
G6PDH-coupled spectrophotometric assay, non-linear least squares fit on cytosolic AtPGI (PGI2)

In test [3] the target is T2, cytosolic AtPGI (PGI2). The test is described as follows: phosphofructokinase-coupled LC-MS/MS assay of FBP, Hill function fit. Particulars: G6P to F6P direction; 50 mM Tris pH 7.8, 2.5 mM MgCl2, 1 mM ATP, 5 mM DTT; read-out: G6P F6P / Cytosolic PGI. The source says:
phosphofructokinase-coupled LC-MS/MS assay of FBP, Hill function fit on cytosolic AtPGI (PGI2)

Test [4] deals with T1, plastidic AtPGI (PGI1). The description is as above. Particulars: G6P to F6P direction; 50 mM Tris pH 7.8, 2.5 mM MgCl2, 1 mM ATP, 5 mM DTT; table and text ratio disagree, table columns possibly interchanged; read-out: G6P F6P / Plastidic PGI. The source says: phosphofructokinase-coupled LC-MS/MS assay of FBP, Hill function fit on plastidic AtPGI (PGI1)
Test [5] has as its target T1, plastidic AtPGI (PGI1). The test is described as follows: G6PDH-coupled spectrophotometric assay, Hill function fit. The conditions noted are these: F6P to G6P direction; 50 mM bicine pH 7.8, 4.8 mM DTT, 0.6 mM NADP+; read-out: F6P G6P / Plastidic PGI. The source says: G6PDH-coupled spectrophotometric assay, Hill function fit on plastidic AtPGI (PGI1)
Another test has as its target T3, plastidic SoPGI (Spinacia oleracea, UniProt O82058).
T3 construct: gene GPIP; native, lysed Percoll-isolated chloroplasts from market spinach leaves, light or dark treated
T3 sequence (O82058 51-618): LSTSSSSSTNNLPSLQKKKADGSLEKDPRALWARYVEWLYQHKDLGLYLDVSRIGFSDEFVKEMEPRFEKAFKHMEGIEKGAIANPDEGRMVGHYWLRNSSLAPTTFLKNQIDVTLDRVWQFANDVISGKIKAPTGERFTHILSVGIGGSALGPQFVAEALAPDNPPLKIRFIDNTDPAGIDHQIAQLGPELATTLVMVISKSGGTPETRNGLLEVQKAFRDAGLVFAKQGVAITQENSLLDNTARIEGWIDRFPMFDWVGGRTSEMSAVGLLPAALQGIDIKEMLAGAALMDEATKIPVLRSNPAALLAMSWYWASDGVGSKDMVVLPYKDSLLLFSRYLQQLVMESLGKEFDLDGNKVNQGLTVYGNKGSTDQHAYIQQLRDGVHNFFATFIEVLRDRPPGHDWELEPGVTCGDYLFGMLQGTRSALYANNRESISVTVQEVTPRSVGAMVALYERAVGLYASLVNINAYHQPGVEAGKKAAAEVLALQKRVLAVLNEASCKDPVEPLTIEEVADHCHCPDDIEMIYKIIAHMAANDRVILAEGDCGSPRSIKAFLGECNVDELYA
The test is described as follows: PGI assay on lysed isolated chloroplasts. The conditions noted are these: F6P to G6P direction; light-treated leaves (dark-treated also measured).

Test [6] deals with T2, cytosolic AtPGI (PGI2). Nature of the test: G6PDH-coupled spectrophotometric assay, Hill function fit. Particulars: F6P to G6P direction; 50 mM bicine pH 7.8, 4.8 mM DTT, 0.6 mM NADP+; table and text disagree, table columns possibly interchanged; read-out: F6P G6P / Cytosolic PGI. The source says: G6PDH-coupled spectrophotometric assay, Hill function fit on cytosolic AtPGI (PGI2)

Setting [7] is: competitive with F6P except above 1.0 mM.

Read-outs that look alike come from different tables or passages of the source.

On to `O=C(O)[C@H](O)[C@@H](O)[C@H](O)[C@H](O)COP(=O)(O)O` [6PG, 6-phosphogluconate], for which the Ki on plastidic AtPGI (PGI1) [1] (setting [7]) stood at 31 µM; at cytosolic AtPGI (PGI2) [2] (setting [7]), 106 µM.
Take `O=P(O)(O)OC[C@H]1OC(O)[C@H](O)[C@@H](O)[C@@H]1O` (stereo partly drawn) [G6P, glucose 6-phosphate]: the Km on cytosolic AtPGI (PGI2) [3] came to 158 ± 85 µM; at plastidic AtPGI (PGI1) [4], 164 ± 43 µM.
For the molecule `O=C[C@H](O)[C@H](O)COP(=O)(O)O` [E4P, erythrose 4-phosphate], the Ki on plastidic AtPGI (PGI1) [1] came out at 2.3 µM; at cytosolic AtPGI (PGI2) [2], 1.5 µM.
Regarding `O=P(O)(O)OC[C@H]1OC(O)(CO)[C@@H](O)[C@@H]1O` (stereo partly drawn) [F6P, fructose 6-phosphate], the Km is 73 ± 80 µM on plastidic AtPGI (PGI1) [5], “The Km of SoPGI for F6P did not change in the light or dark” on plastidic SoPGI and 203 ± 12 µM on cytosolic AtPGI (PGI2) [6].
